For this data set, the system named is CCRIS mutagenicity, Ames/micronucleus/aberration tests. The experiment in a line: CCRIS mutagenicity studies.
Setting [1] is: Test System: AMES SALMONELLA TYPHIMURIUM, Strain/Indicator: TA100, Metabolic Activation: NONE, Method: STANDARD PLATE.

Calls of active or inactive are those of the source. No rule for the calls is given here.

For four compounds, mutagenic call results are on record in PubChem BioAssay AID1259407 (Chemical Carcinogenesis Research Information System (CCRIS), 2018).

Consider `FC(C(F)(F)F)C(F)(F)F`, for which the mutagenic call is, setting by setting: (Test System: AMES SALMONELLA TYPHIMURIUM, Strain/Indicator: TA98, Metabolic Activation: NONE, Method: DESICCATOR) “inactive; negative”; (Test System: AMES SALMONELLA TYPHIMURIUM, Strain/Indicator: TA98, Metabolic Activation: NONE, Method: VAPOR CHAMBER) “inactive; negative”; (Test System: AMES SALMONELLA TYPHIMURIUM, Strain/Indicator: TA98, Metabolic Activation: RAT, LIVER, S-9, AROCLOR 1254, Method: DESICCATOR) “inactive; negative”; (Test System: AMES SALMONELLA TYPHIMURIUM, Strain/Indicator: TA98, Metabolic Activation: RAT, LIVER, S-9, AROCLOR 1254, Method: VAPOR CHAMBER) “inactive; negative”; (Test System: AMES SALMONELLA TYPHIMURIUM, Strain/Indicator: TA100, Metabolic Activation: NONE, Method: DESICCATOR) “inactive; negative”; (Test System: AMES SALMONELLA TYPHIMURIUM, Strain/Indicator: TA100, Metabolic Activation: NONE, Method: VAPOR CHAMBER) “inactive; negative”. Besides, the mutagenic call reads like this: (Test System: AMES SALMONELLA TYPHIMURIUM, Strain/Indicator: TA100, Metabolic Activation: RAT, LIVER, S-9, AROCLOR 1254, Method: DESICCATOR) “inactive; negative”; (Test System: AMES SALMONELLA TYPHIMURIUM, Strain/Indicator: TA100, Metabolic Activation: RAT, LIVER, S-9, AROCLOR 1254, Method: VAPOR CHAMBER) “inactive; negative”; (Test System: AMES SALMONELLA TYPHIMURIUM, Strain/Indicator: TA1535, Metabolic Activation: NONE, Method: DESICCATOR) “inactive; negative”; (Test System: AMES SALMONELLA TYPHIMURIUM, Strain/Indicator: TA1535, Metabolic Activation: NONE, Method: VAPOR CHAMBER) “inactive; negative”; (Test System: AMES SALMONELLA TYPHIMURIUM, Strain/Indicator: TA1535, Metabolic Activation: RAT, LIVER, S-9, AROCLOR 1254, Method: DESICCATOR) “inactive; negative”; (Test System: AMES SALMONELLA TYPHIMURIUM, Strain/Indicator: TA1535, Metabolic Activation: RAT, LIVER, S-9, AROCLOR 1254, Method: VAPOR CHAMBER) “inactive; negative”. Besides, the mutagenic call was “inactive; negative” (Test System: AMES SALMONELLA TYPHIMURIUM, Strain/Indicator: TA1537, Metabolic Activation: NONE, Method: DESICCATOR); “inactive; negative” (Test System: AMES SALMONELLA TYPHIMURIUM, Strain/Indicator: TA1537, Metabolic Activation: NONE, Method: VAPOR CHAMBER); “inactive; negative” (Test System: AMES SALMONELLA TYPHIMURIUM, Strain/Indicator: TA1537, Metabolic Activation: RAT, LIVER, S-9, AROCLOR 1254, Method: DESICCATOR); “inactive; negative” (Test System: AMES SALMONELLA TYPHIMURIUM, Strain/Indicator: TA1537, Metabolic Activation: RAT, LIVER, S-9, AROCLOR 1254, Method: VAPOR CHAMBER); “inactive; negative” (Test System: AMES SALMONELLA TYPHIMURIUM, Strain/Indicator: TA1538, Metabolic Activation: NONE, Method: DESICCATOR); “inactive; negative” (Test System: AMES SALMONELLA TYPHIMURIUM, Strain/Indicator: TA1538, Metabolic Activation: NONE, Method: VAPOR CHAMBER). The mutagenic call by setting is: (Test System: AMES SALMONELLA TYPHIMURIUM, Strain/Indicator: TA1538, Metabolic Activation: RAT, LIVER, S-9, AROCLOR 1254, Method: DESICCATOR) “inactive; negative”; (Test System: AMES SALMONELLA TYPHIMURIUM, Strain/Indicator: TA1538, Metabolic Activation: RAT, LIVER, S-9, AROCLOR 1254, Method: VAPOR CHAMBER) “inactive; negative”; (Test System: MOUSE LYMPHOMA, Strain/Indicator: L5178Y (TK+/TK-), Metabolic Activation: NONE, Method: SUSPENSION/PLATE) “inactive; negative”; (Test System: MOUSE LYMPHOMA, Strain/Indicator: L5178Y (TK+/TK-), Metabolic Activation: RAT, LIVER, S-9, AROCLOR 1254, Method: SUSPENSION/PLATE) “inactive; negative”.
Take `CC(=O)c1ccc[nH]1`: the mutagenic call is, setting by setting: under setting [1], “inactive; negative”; (Test System: AMES SALMONELLA TYPHIMURIUM, Strain/Indicator: TA100, Metabolic Activation: RAT, LIVER, S-9, AROCLOR 1254, Method: STANDARD PLATE) “inactive; negative”.
Consider `CN(C)CCCNc1c2ccccc2nc2c(F)ccc([N+](=O)[O-])c12`, for which the mutagenic call was “active; positive” (Test System: AMES SALMONELLA TYPHIMURIUM, Strain/Indicator: TA98, Metabolic Activation: NONE, Method: STANDARD PLATE) and “active; positive” under setting [1].
As for `C=CC(=O)OCC1CO1` (configuration not stated), the mutagenic call by setting is: (Test System: AMES SALMONELLA TYPHIMURIUM, Strain/Indicator: TA100, Metabolic Activation: HAMSTER, LIVER, S-9, AROCLOR 1254 (10%), Method: PREINCUBATION) “active; positive”; (Test System: AMES SALMONELLA TYPHIMURIUM, Strain/Indicator: TA100, Metabolic Activation: NONE, Method: PREINCUBATION) “active; positive”; (Test System: AMES SALMONELLA TYPHIMURIUM, Strain/Indicator: TA100, Metabolic Activation: RAT, LIVER, S-9, AROCLOR 1254 (10%), Method: PREINCUBATION) “active; positive”; (Test System: AMES SALMONELLA TYPHIMURIUM, Strain/Indicator: TA1535, Metabolic Activation: HAMSTER, LIVER, S-9, AROCLOR 1254 (10%), Method: PREINCUBATION) “active; positive”; (Test System: AMES SALMONELLA TYPHIMURIUM, Strain/Indicator: TA1535, Metabolic Activation: NONE, Method: PREINCUBATION) “active; positive”; (Test System: AMES SALMONELLA TYPHIMURIUM, Strain/Indicator: TA1535, Metabolic Activation: RAT, LIVER, S-9, AROCLOR 1254 (10%), Method: PREINCUBATION) “active; positive”.
